SMILES strings stand for the structures. Some results are limits rather than exact numbers.

Among the data in US20250339547A1, “MET BCL-XL INHIBITOR ANTIBODY-DRUG CONJUGATES AND METHODS OF USE THEREOF” (Novartis AG, priority 2022, published 2025) are IC50 values, retold here.

Common to all, as to assay type: cell-based
Experiment [1] concerns H1650 cells. In words: In vitro activity in H1650 cell line (3D, CTG 120h), Example 6. To be noted: Homo sapiens, NCI-H1650, 120 h, H1650 3D. How it is done:
(§1) H1650 cells were cultivated in RPMI supplemented with 10% heat inactivated fetal bovine serum, penicillin (100 IU/ml), streptomycin (100 μg/ml) and L-glutamine (2 mM). Cells were cultured at 37° C. in a humidified atmosphere containing 5% CO2. Cells were seeded in 96 microwell round bottom plates (96 microwell low attachment plates, Costar reference 7007; 75 μL/well of 125000 cells/mL) and exposed to the mAbs or ADCs for 120h (serially diluted; 9 concentrations each, duplicates). Effects of mAbs or ADCs on cell viability were assessed after 5 days of incubation at 37° C./5% CO2 by quantification of cellular ATP levels using CellTiterGlo at 75 μL reagent/well. All the conditions were tested in duplicates. Luminescence was quantified on a multipurpose plate reader. IC50s were calculated using standard four-parametric curve fitting. IC50 is defined as the compound concentration at which the CTG signal is reduced to 50% of that measured for the control. Two independent experiments were performed (N1 and N2). IC50 data of each experiment and the arithmetic mean is shown in Table 14 for all the antibodies and ADCs tested. NT=not tested; ND=not determined.

Experiment [2] deals with EBC-1. In words: In vitro activity in EBC-1 cell line (CTG 120h), Example 6. The settings on record: Homo sapiens, EBC-1, 120 h, EBC-1, CTG 120 h. How it is done: (§2) Cell lines were cultured in the media described above at 37° C. in a humidified atmosphere containing 5% CO2. Cells were seeded in 96 well clear bottom plates (96 well clear-bottom, white, Corning reference 3903) and exposed to the mAbs or ADCs for 120h (serially diluted; 9 concentrations each, triplicates). Effects of mAbs or ADCs on cell viability were assessed after 5 days of incubation at 37° C./5% CO2 by quantification of cellular ATP levels using CellTiter-Glo reagent (Promega Ref: G7571) at 75 μL reagent/well. All the conditions were tested in triplicates. Luminescence was quantified on a multipurpose plate reader. IC50s were calculated using standard four-parametric curve fitting. IC50 is defined as the compound concentration at which the CTG signal is reduced to 50% of that measured for the control. Two independent experiments were performed (N1 and N2). IC50 data of each experiment and the arithmetic mean is shown in Table 14 for all the antibodies and ADCs tested.

The subject of experiment [3] is SNU-5. As to the kind of experiment: In vitro activity in SNU-5 cell line (CTG 120h), Example 6. The settings on record: Homo sapiens, SNU-5, 120 h, SNU-5, CTG 120 h. How it is done:
as §2

The subject of the next experiment is LOUNH-91. In words: In vitro activity in LOUNH-91 cell line (CTG 120h), Example 6. To be noted: LOU-NH91, 120 h, LOUNH91, CTG 120 h. As for the experimental part: as §2
Experiment [4] deals with EBC-1. As to the kind of experiment: In vitro activity in EBC-1 cell line (CTG 120h), Example 12. To be noted: Homo sapiens, EBC-1, 120 h, EBC1, CTG 120 h. How it is done:
as §2, with “EBC-1 and SNU-5 cell lines” for “Cell lines”, “CO2. The cells” for “CO2. Cells”, “N2).” for “N2). IC50 data of each experiment and the arithmetic mean is shown in Table 14 for all the antibodies and ADCs tested.”
(§3) Plating Conditions: EBC-1: 75 μL/well of 60000 cells/mL for 120h in 96-well plate SNU-5: 75 μL/well of 60000 cells/mL for 120h in 96-well plate H1650 (ATOC): 75 μL/well of 125000 cells/mL for 120h in 96 microwell round bottom plates

For experiment [5], the system named is SNU-5. In words: In vitro activity in SNU-5 cell line (CTG 120h), Example 12. To be noted: Homo sapiens, SNU-5, 120 h, SNU5, CTG 120 h. How it is done: EBC-1 and SNU-5 cell lines were cultured in the media described above at 37° C. in a humidified atmosphere containing 5% CO2. […] Effects of mAbs or ADCs on cell viability were assessed after 5 days of incubation at 37° C./5% CO2 by quantification of cellular ATP levels using CellTiter-Glo reagent (Promega Ref: G7571) at 75 μL reagent/well. All the conditions were tested in triplicates. Luminescence was quantified on a multipurpose plate reader. IC50s were calculated using standard four-parametric curve fitting. […] Two independent experiments were performed (N1 and N2).

The subject of experiment [6] is H1650 cells. In words: In vitro activity in H1650 cell line (3D, CTG 120h), Example 12. To be noted: Homo sapiens, NCI-H1650, 120 h, H1650 3D. As for the experimental part:
as §1, with “CellTiter-Glo reagent (Promega Ref: G7571)” for “CellTiterGlo”, “N2).” for “N2). IC50 data of each experiment and the arithmetic mean is shown in Table 14 for all the antibodies and ADCs tested. NT=not tested; ND=not determined.”
as §3

As to `Cc1c(Nc2nc3ccccc3s2)nnc2c1CCCN2c1ccc(-c2cnn(C[C@]34C[C@]5(C)C[C@](C)(C3)C[C@@](OCCNCCCO)(C5)C4)c2C)c(C(=O)O)n1` [P25, 6-[3-(1,3-benzothiazol-2-ylamino)-4-methyl-6,7-dihydro-5H-pyrido[2,3-c]pyridazin-8-yl]-3-[1-[[3-[2-(3-hydroxypropylamino)ethoxy]-5,7-dimethyl-1-adamantyl]methyl]-5-methyl-pyrazol-4-yl]pyridine-2-carboxylic acid], the IC50 (as a rule, the concentration that inhibits the measured activity by half) in the experiment on H1650 cells [1] (mean) was found to be 1.57 nM; with H1650 cells [1] (n = 1) it was 1.47 nM; in the experiment with H1650 cells [1] (n = 2), 1.66 nM; in the experiment with EBC-1 [2] (mean), 43.4 nM; with EBC-1 [2] (n = 1), 20.8 nM; in the experiment with EBC-1 [2] (n = 2), 65.9 nM. Besides, the half-inhibitory concentration (IC50) came to 10700 nM in the experiment on SNU-5 [3] (mean); 10600 nM in the experiment on SNU-5 [3] (n = 1); 10800 nM with SNU-5 [3] (n = 2); 7.07 nM with LOUNH-91 (mean); 6.43 nM in the experiment with LOUNH-91 (n = 1); 7.71 nM in the experiment on LOUNH-91 (n = 2). Further, the IC50 was 12.6 nM with EBC-1 [4] (Mean); 12.8 nM with EBC-1 [4] (N1); 12.4 nM with EBC-1 [4] (N2); 5510 nM with SNU-5 [5] (Mean); 5510 nM with SNU-5 [5] (N1); over 30000 nM in the experiment on SNU-5 [5] (N2). For the same compound, the IC50 was 8.28 nM in the experiment with H1650 cells [6] (N1), 5.9 nM with H1650 cells [6] (N2) and 7.09 nM in the experiment with H1650 cells [6] (mean).
